According to ChEMBL document CHEMBL5705887, “Distinct concentration-dependent effects of the polo-like kinase 1-specific inhibitor GSK461364A, including differential effect on apoptosis” (Cancer Res, 2009):
The source made the active and inactive calls. No cut-off for these calls is given here.

What was measured:
Calu-1 = assay: Antiproliferative activity against human Calu-1 cells assessed as viable cell signal at maximum growth inhibition incubated for 72 hrs by celltiter-glo assay relative to control; assay type: functional
[1] = target: Vascular endothelial growth factor receptor 3 (Homo sapiens) (UniProt P35916); assay: Inhibition of N-terminal GST-tagged recombinant human FLT4 (800 to end residues) at 10 uM relative to control
Sequence of Vascular endothelial growth factor receptor 3 (Homo sapiens) (P35916 whole entry): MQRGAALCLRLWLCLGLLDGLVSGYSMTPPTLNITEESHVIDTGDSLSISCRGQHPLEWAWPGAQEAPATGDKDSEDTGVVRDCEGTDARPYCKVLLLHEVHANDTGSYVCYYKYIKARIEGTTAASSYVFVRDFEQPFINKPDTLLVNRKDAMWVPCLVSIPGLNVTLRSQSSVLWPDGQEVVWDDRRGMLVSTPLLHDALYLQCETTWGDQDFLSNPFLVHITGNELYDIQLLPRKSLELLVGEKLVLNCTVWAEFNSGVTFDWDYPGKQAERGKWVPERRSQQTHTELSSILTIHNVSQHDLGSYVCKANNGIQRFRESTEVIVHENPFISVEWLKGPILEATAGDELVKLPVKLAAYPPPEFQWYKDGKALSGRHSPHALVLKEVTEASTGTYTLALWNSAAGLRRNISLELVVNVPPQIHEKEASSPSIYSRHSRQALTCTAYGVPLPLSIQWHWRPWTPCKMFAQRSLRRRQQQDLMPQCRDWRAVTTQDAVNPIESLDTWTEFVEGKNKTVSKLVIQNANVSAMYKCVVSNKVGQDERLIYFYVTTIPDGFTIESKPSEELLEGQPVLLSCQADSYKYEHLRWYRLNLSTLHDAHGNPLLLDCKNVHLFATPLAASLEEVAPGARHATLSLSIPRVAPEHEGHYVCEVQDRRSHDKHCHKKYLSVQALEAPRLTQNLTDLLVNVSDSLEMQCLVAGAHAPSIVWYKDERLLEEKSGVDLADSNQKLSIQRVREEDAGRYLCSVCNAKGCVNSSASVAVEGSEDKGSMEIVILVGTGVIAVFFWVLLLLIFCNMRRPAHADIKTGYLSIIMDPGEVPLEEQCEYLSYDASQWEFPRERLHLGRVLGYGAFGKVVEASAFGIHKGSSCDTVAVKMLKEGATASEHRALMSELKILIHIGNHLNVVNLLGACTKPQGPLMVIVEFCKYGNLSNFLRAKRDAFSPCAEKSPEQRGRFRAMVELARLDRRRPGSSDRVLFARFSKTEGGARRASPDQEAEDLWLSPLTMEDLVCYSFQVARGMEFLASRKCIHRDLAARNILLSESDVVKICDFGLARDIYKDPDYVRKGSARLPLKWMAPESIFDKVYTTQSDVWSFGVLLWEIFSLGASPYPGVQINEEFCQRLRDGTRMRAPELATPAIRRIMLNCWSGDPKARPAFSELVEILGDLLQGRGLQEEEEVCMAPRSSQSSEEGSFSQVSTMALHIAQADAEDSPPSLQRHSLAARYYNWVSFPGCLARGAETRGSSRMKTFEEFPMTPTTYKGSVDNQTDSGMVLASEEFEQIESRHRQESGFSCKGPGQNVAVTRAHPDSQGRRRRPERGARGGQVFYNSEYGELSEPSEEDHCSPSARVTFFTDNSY

Panc 02.03 [2] = assay: Antiproliferative activity against human Panc 02.03 cells assessed as viable cell signal at maximum growth inhibition incubated for 72 hrs by celltiter-glo assay relative to control; assay type: functional
LoVo = assay: Antiproliferative activity against human LoVo cells assessed as growth inhibition incubated for 72 hrs by celltiter-glo assay; assay type: functional
COLO 205 [3] = assay: Antitumor activity against human COLO 205 cells xenografted in Nude mouse assessed as tumor growth delay time at 50 mg/kg, ip administered every 2 to 4 days; assay type: functional; conditions: time 2-4 day
[4] = target: Calcium/calmodulin-dependent protein kinase type II subunit beta (Homo sapiens) (UniProt Q13554); assay: Inhibition of recombinant human CaMKII-beta at 10 uM relative to control
Sequence of Calcium/calmodulin-dependent protein kinase type II subunit beta (Homo sapiens) (Q13554 whole entry): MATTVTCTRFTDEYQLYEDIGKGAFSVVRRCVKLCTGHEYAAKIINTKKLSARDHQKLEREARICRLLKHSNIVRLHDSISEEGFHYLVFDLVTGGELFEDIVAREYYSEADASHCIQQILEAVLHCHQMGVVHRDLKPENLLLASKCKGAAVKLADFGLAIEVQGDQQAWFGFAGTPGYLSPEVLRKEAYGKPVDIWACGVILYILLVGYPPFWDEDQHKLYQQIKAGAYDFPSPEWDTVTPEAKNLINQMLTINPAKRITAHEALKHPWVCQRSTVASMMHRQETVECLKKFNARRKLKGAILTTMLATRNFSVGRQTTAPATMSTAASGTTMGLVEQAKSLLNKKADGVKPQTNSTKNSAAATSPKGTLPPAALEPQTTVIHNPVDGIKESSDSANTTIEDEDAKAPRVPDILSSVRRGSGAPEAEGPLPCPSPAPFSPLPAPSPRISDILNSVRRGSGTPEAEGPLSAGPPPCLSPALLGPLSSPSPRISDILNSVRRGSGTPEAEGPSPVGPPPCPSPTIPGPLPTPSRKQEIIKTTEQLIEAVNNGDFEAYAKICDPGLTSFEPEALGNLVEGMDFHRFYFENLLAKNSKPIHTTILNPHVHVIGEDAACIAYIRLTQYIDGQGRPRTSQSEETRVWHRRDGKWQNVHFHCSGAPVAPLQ

COLO 205 [5] = assay: Antiproliferative activity against human COLO 205 cells assessed as of viable cell signal at minimum maximum cell growth incubated for 72 hrs by celltiter-glo assay relative to control; assay type: functional
Panc 02.03 [6] = assay: Antiproliferative activity against human Panc 02.03 cells assessed as of viable cell signal at minimum maximum cell growth incubated for 72 hrs by celltiter-glo assay relative to control; assay type: functional
U-87 MG = assay: Antiproliferative activity against human U-87 MG cells assessed as viable cell signal at maximum growth inhibition incubated for 72 hrs by celltiter-glo assay relative to control; assay type: functional, U-87MG ATCC
A-427 = assay: Antiproliferative activity against human A-427 cells assessed as growth inhibition incubated for 72 hrs by celltiter-glo assay; assay type: functional
OVCAR-8 = assay: Antiproliferative activity against human OVCAR-8 cells assessed as growth inhibition incubated for 72 hrs by celltiter-glo assay; assay type: functional
ZR-75-1 [7] = assay: Antiproliferative activity against human ZR-75-1 cells assessed as growth inhibition incubated for 72 hrs by celltiter-glo assay; assay type: functional
COLO 205 [8] = assay: Antitumor activity against human COLO 205 cells xenografted in Nude mouse assessed as tumor regression at 50 mg/kg, ip administered one dose every 2 day repeated for 12 days; assay type: functional, organism-based; conditions: time 12.0 day
[9] = Antiproliferative activity against human PL45 cells assessed as of viable cell signal at minimum maximum cell growth incubated for 72 hrs by celltiter-glo assay relative to control; assay type: functional
[10] = target: Serine/threonine-protein kinase pim-1 (Homo sapiens) (UniProt P11309); assay: Inhibition of full length N-terminal GST-tagged recombinant human PIM1 expressed in Escherichia coli at 10 uM relative to control
Sequence of Serine/threonine-protein kinase pim-1 (Homo sapiens) (P11309 whole entry, looked up): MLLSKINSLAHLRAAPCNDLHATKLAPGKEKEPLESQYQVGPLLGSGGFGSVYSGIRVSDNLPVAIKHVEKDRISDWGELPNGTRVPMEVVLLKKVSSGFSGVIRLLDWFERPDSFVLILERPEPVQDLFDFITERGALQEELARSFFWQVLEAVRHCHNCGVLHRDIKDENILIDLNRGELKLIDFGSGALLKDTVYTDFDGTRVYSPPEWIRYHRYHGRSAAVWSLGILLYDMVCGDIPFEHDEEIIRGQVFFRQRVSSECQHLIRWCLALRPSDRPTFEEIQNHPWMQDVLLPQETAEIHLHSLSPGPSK

A549 [11] = assay: Antiproliferative activity against human A549 cells assessed as growth inhibition incubated for 72 hrs by celltiter-glo assay; assay type: functional
[12] = target: Serine/threonine-protein kinase PLK3 (Homo sapiens) (UniProt Q9H4B4); assay: Inhibition of N-terminal his6-tagged recombinant human PLK3 (19 to 301 residues) expressed in baculovirus Sf21 insect cells at 10 uM relative to control
Sequence of Serine/threonine-protein kinase PLK3 (Homo sapiens) (Q9H4B4 whole entry, looked up, the tested form may be a part): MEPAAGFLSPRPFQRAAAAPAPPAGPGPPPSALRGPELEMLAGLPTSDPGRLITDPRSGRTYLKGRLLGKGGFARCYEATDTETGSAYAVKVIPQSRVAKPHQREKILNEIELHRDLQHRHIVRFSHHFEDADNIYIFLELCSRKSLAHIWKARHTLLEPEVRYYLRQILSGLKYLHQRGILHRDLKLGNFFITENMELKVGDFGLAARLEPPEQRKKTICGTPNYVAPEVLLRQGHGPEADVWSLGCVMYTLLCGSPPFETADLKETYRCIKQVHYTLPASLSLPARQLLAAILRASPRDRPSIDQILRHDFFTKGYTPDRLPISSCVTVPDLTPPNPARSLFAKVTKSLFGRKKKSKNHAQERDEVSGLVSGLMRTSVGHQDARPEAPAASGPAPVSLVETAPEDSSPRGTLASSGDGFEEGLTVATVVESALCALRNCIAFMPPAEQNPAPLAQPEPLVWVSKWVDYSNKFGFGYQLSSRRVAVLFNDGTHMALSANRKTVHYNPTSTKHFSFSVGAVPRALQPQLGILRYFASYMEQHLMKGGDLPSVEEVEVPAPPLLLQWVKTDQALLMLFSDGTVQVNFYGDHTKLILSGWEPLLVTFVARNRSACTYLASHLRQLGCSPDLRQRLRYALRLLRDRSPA

MDA-MB-231 = assay: Antiproliferative activity against human MDA-MB-231 cells assessed as of viable cell signal at minimum maximum cell growth incubated for 72 hrs by celltiter-glo assay relative to control; assay type: functional
[13] = Antiproliferative activity against human PL45 cells assessed as growth inhibition incubated for 72 hrs by celltiter-glo assay; assay type: functional
MDA-MB-468 = assay: Induction of mitotic arrest in human MDA-MB-468 cells assessed as effect on pHH3 level at 10 to 250 nmol/L incubated for 19 hrs by ELISA analysis; assay type: functional, cell-based; conditions: dose 10-250 nmol/L
ZR-75-1 [14] = assay: Antiproliferative activity against human ZR-75-1 cells assessed as of viable cell signal at minimum maximum cell growth incubated for 72 hrs by celltiter-glo assay relative to control; assay type: functional
COLO 205 [15] = assay: Antitumor activity against human COLO 205 cells xenografted in ip dosed Nude mouse assessed as increase in pHH3 level measured at 24 to 48 hrs by […]; assay type: functional, organism-based; conditions: dose 50-100 mg/kg, time 24-48 hrs
Jurkat = assay: Antiproliferative activity against human Jurkat cells assessed as viable cell signal at maximum growth inhibition incubated for 72 hrs by celltiter-glo assay relative to control; assay type: functional
K562 = assay: Antiproliferative activity against human K562 cells assessed as of viable cell signal at minimum maximum cell growth incubated for 72 hrs by celltiter-glo assay relative to control; assay type: functional
SK-BR-3 = assay: Antiproliferative activity against human SK-BR-3 cells assessed as growth inhibition incubated for 72 hrs by celltiter-glo assay; assay type: functional
NCI-H727 = assay: Antiproliferative activity against human NCI-H727 cells assessed as growth inhibition incubated for 72 hrs by celltiter-glo assay; assay type: functional
A-431 = assay: Antiproliferative activity against human A-431 cells assessed as growth inhibition incubated for 72 hrs by celltiter-glo assay; assay type: functional
NCI-H522 = assay: Antiproliferative activity against human NCI-H522 cells assessed as growth inhibition incubated for 72 hrs by celltiter-glo assay; assay type: functional
Raji = assay: Antiproliferative activity against human Raji cells assessed as of viable cell signal at minimum maximum cell growth incubated for 72 hrs by celltiter-glo assay relative to control; assay type: functional
HN5 = assay: Antiproliferative activity against human HN5 cells assessed as of viable cell signal at minimum maximum cell growth incubated for 72 hrs by celltiter-glo assay relative to control; assay type: functional
PANC-1 [16] = assay: Antiproliferative activity against human PANC-1 cells assessed as viable cell signal at maximum growth inhibition incubated for 72 hrs by celltiter-glo assay relative to control; assay type: functional
NCI-H157 = assay: Antiproliferative activity against human NCI-H157 cells assessed as viable cell signal at maximum growth inhibition incubated for 72 hrs by celltiter-glo assay relative to control; assay type: functional
PANC-1 [17] = assay: Antiproliferative activity against human PANC-1 cells assessed as growth inhibition incubated for 72 hrs by celltiter-glo assay; assay type: functional
DU-145 = assay: Antiproliferative activity against human DU-145 cells assessed as viable cell signal at maximum growth inhibition incubated for 72 hrs by celltiter-glo assay relative to control; assay type: functional
SK-MEL3 = assay: Antiproliferative activity against human SK-MEL3 cells assessed as growth inhibition incubated for 72 hrs by celltiter-glo assay; assay type: functional
OVCAR-3 = assay: Antiproliferative activity against human OVCAR-3 cells assessed as of viable cell signal at minimum maximum cell growth incubated for 72 hrs by celltiter-glo assay relative to control; assay type: functional
A549 [18] = assay: Induction of mitotic arrest in human A549 cells assessed as disordered spindle formation at 313 nmol/L incubated for 16 hrs by alpha-tubulin/DAPI staining based confocal microscopic analysis; assay type: functional, cell-based
OVCAR-4 = assay: Antiproliferative activity against human OVCAR-4 cells assessed as of viable cell signal at minimum maximum cell growth incubated for 72 hrs by celltiter-glo assay relative to control; assay type: functional
NCI-H1155 = assay: Antiproliferative activity against human NCI-H1155 cells assessed as viable cell signal at maximum growth inhibition incubated for 72 hrs by celltiter-glo assay relative to control; assay type: functional
SCLC = assay: Antiproliferative activity against human SCLC cells assessed as viable cell signal at maximum growth inhibition incubated for 72 hrs by celltiter-glo assay relative to control; assay type: functional

**Q.** With `C[C@@H](Oc1cc(-n2cnc3ccc(CN4CCN(C)CC4)cc32)sc1C(N)=O)c1ccccc1C(F)(F)F` [GSK-461364] as the compound, how does the Emax (Calu-1) read?
**A.** The Emax was 371%.

**Q.** And the inhibition [1]?
**A.** Its inhibition is 87%.

**Q.** What about the Emax (Panc 02.03 [2]) of the same compound?
**A.** Its Emax is 420%.

**Q.** What about the GI50 (LoVo) of the same compound?
**A.** The GI50 was 12.2 nM.

**Q.** What about the Time (COLO 205 [3]) of the same compound?
**A.** Its Time is 39 days.

**Q.** And the inhibition [4]?
**A.** The inhibition was 56%.

**Q.** And the Emin (COLO 205 [5])?
**A.** Its Emin is 102.6%.

**Q.** And the Emin (Panc 02.03 [6])?
**A.** Its Emin is 192%.

**Q.** And the Emax (U-87 MG)?
**A.** Its Emax is 632%.

**Q.** And the GI50 (A-427)?
**A.** The GI50 was 22.8 nM.

**Q.** What about the GI50 (OVCAR-8) of the same compound?
**A.** Its GI50 is 20.4 nM.

**Q.** And the GI50 (ZR-75-1 [7])?
**A.** Its GI50 is 46.5 nM.

**Q.** What about the Activity (COLO 205 [8]) of the same compound?
**A.** Its Activity is “Active”.

**Q.** And the Emin [9]?
**A.** The Emin was 101.2%.

**Q.** What about the inhibition [10] of the same compound?
**A.** The inhibition was 90%.

**Q.** And the GI50 (A549 [11])?
**A.** Its GI50 is 34 nM.

**Q.** And the inhibition [12]?
**A.** Its inhibition is 64%.

**Q.** And the Emin (MDA-MB-231)?
**A.** Its Emin is 37%.

**Q.** What about the GI50 [13] of the same compound?
**A.** Its GI50 is 21.9 nM.

**Q.** And the Activity (MDA-MB-468)?
**A.** Its Activity is “Active”.

**Q.** And the Emin (ZR-75-1 [14])?
**A.** The Emin was 133.6%.

**Q.** And the Activity (COLO 205 [15])?
**A.** The Activity was “Dose-Dependent Effect”.

**Q.** And the Emax (Jurkat)?
**A.** Its Emax is 753%.

**Q.** And the Emin (K562)?
**A.** The Emin was 91.2%.

**Q.** What about the GI50 (SK-BR-3) of the same compound?
**A.** Its GI50 is 15.8 nM.

**Q.** What about the GI50 (NCI-H727) of the same compound?
**A.** The GI50 was 45.2 nM.

**Q.** And the GI50 (A-431)?
**A.** Its GI50 is 16.6 nM.

**Q.** What about the GI50 (NCI-H522) of the same compound?
**A.** Its GI50 is 16.9 nM.

**Q.** And the Emin (Raji)?
**A.** The Emin was 5.1%.

**Q.** And the Emin (HN5)?
**A.** Its Emin is 39.8%.

**Q.** What about the Emax (PANC-1 [16]) of the same compound?
**A.** Its Emax is 530%.

**Q.** What about the Emax (NCI-H157) of the same compound?
**A.** Its Emax is 847%.

**Q.** What about the GI50 (PANC-1 [17]) of the same compound?
**A.** Its GI50 is 44.9 nM.

**Q.** And the Emax (DU-145)?
**A.** The Emax was 500%.

**Q.** What about the GI50 (SK-MEL3) of the same compound?
**A.** Its GI50 is 17.6 nM.

**Q.** And the Emin (OVCAR-3)?
**A.** The Emin was 164%.

**Q.** What about the Activity (A549 [18]) of the same compound?
**A.** Its Activity is “Active”.

**Q.** What about the Emin (OVCAR-4) of the same compound?
**A.** The Emin was 164.7%.

**Q.** And the Emax (NCI-H1155)?
**A.** Its Emax is 645%.

**Q.** What about the Emax (SCLC) of the same compound?
**A.** The Emax was 834%.
